Laboratory results reported in patent US20160361251A1, “NOVEL PROCESS FOR PRODUCING TRANSMUCOSAL PHARMACEUTICAL FORMULATIONS AND FORMULATIONS THUS OBTAINED” (Clemann Group, priority 2013, published 2016).

B1: rBetv1: recombinant allergen rBetv1, a characteristic allergen of trees of the order of fagales and in particular birch (protein, UniProt P15494 2-160, looked up)
Major pollen allergen Bet v …: GVFNYETETTSVIPAARLFKAFILDGDNLFPKVAPQAISSVENIEGNGGPGTIKKISFPEGFPFKYVKDRVDEVDHTNFKYNYSVIEGGPIGDTLEKISNEIKIVATPDGGSILKISNKYHTKGDHEVKAEQVKASKEMGETLLRAVESYLLAHSDAYN

Assay: Dissolution of active ingredient in ternary mixture stearate 1500/TPGS/water
Format: physicochemical
Protocol: For this purpose, 10 g of ternary mixture are prepared from 4.50 g of stearate 1500, 500 mg of TPGS and 5 g of water at 50° C. This mixture is maintained at 50° C. with stirring for 5 minutes.
In an Erlenmeyer provided with magnetic stirring, 1.80 g of stearate 1500 and 200 mg of TPGS are mixed at 50° C. with stirring for 3 minutes in order to form a homogenous and intimate mixture of both polymers. The mixture is then slowly cooled to 40° C.
1 ml of an aqueous solution of rBetv1 is then prepared at a concentration of 3 mg/ml.
1 ml of this solution is then introduced into the previous mixture of molten polymer maintained at 40° C.

Molecule	dissolution in ternary mixture (stearate 1500/TPGS/water 4.50 g/500 mg/5 g at 50° C., 4.54 g powder added)	dissolution in molten polymer mixture (1 ml of 3 mg/ml aqueous solution into 1.80 g stearate 1500 + 200 mg TPGS at 40° C.)
CNCC(O)c1ccc(O)c(O)c1.O=C(O)C(O)C(O)C(=O)O (centres unmarked) [adrenaline bitartrate]	total and rapid	
B1		complete and rapid
